# Data: patent US6740680B1, “Pharmaceutical compositions to tetrac and methods of use thereof” (Becton Pharma, Inc., priority 1999, dated 2004)
# Where two headings read alike, the source gives them in different places.
# What was measured:
# hypothyroid rats = assay: Heart weight and heart/body weight in hypothyroid rats infused with Tetrac or T4; type: in vivo, rat; details: hypothyroid rats, mean ± SEM; for Heart: continuous minipump infusion
# Procedure: (§1) Seventy-nine male SIVZ rats were purchased from the breeder (Institut für Labortierkunde des Universität Zürich, Zürich, Switzerland). They were rendered hypothyroid by a single injection of [^131I]Na (100 μCi/rat) and before and throughout the experiment 0.02% 2-mercapto-1-methylimidazol (MMI) was added to drinking water. In order to have an euthyroid control group of similar weight and identical age, 10 rats received only MMI in the drinking water and 2 weeks before implanting the minipumps, MMI was withdrawn. Osmotic minipumps (secretion rate 0.25 μl/hour, duration 14 days) were implanted intraperitoneally (i.p.) 2 months after the injection of [^131I]Na. The minipumps were filled with T4 or Tetrac dissolved in 0.05 N NaOH, 2% BSA and 100,000 cpm [^125I]T4 or [^125I]Tetrac as control of their secretion rates. The infusion lasted 13 days. 0, 1.5, 4.5, 13.5 and 40.5 nmol Tetrac/day/100 g or 0.5, 1.5, 4.5 and 13.5 nmol T4/day/100 g bodyweight (BW) (n=4/dose) were infused. An euthyroid control group was included. The animals were weighed every 2 days. Rats were sacrificed by decapitation and blood was collected and stored at […] until use. Tissues (liver, heart, brown adipose tissue, cerebral cortex and pituitary) were removed rapidly, frozen in liquid nitrogen and stored at […] until use.
# TSH = assay: Serum TSH in hypothyroid rats infused with Tetrac or T4; type: in vivo, rat; details: for Serum TSH: hypothyroid rats, mean ± SEM
# Procedure: Seventy-nine male SIVZ rats were purchased from the breeder (Institut für Labortierkunde des Universität Zürich, Zürich, Switzerland). […] The infusion lasted 13 days. […] An euthyroid control group was included. The animals were weighed every 2 days. Rats were sacrificed by decapitation and blood was collected and stored at […] until use. Tissues (liver, heart, brown adipose tissue, cerebral cortex and pituitary) were removed rapidly, frozen in liquid nitrogen and stored at […] until use.
# Hornone assays. […] Endocrinol. […] Serum TSH measurements were performed with reagents kindly provided by the National Pituitary Program, NIAMDD, NIH (Bethesda, USA).
# [1] = Serum T3, T4, Triac and Tetrac levels in infused rats; type: in vivo; details: male, SIVZ, rat, intraperitoneal, mean ± SEM, read-out: Serum T4
# Procedure: as §1
# Hornone assays. Total serum T4, T3, Tetrac, Triac and TSH levels (intra-assay coefficient of variation 7 to 10%, inter-assay coefficient of variation 12 to 15%) were measured using the method of Burger, A., Sakoloff, C., Staeheli, V., Vallotton, M. D., and Ingbar, S. H. Acta. Endocrinol. (Copenh.) 80: 58-69 (1975). Serum TSH measurements were performed with reagents kindly provided by the National Pituitary Program, NIAMDD, NIH (Bethesda, USA). The detection limits were 0.80 ng TSH/ml; 9.5 pmol T4/ml; 0.16 pmol T3/ml; 10 pmol Tetrac/ml and 0.52 pmol Triac/ml.
# Monodeiodinase type 1 = Monodeiodinase type 1 activity in liver and heart homogenates of infused rats; type: in vivo, rat; details: Liver, infused rats, adjusted group mean at the mean Ln (TSH) concentration
# Procedure: as §1
# (§2) Monodeiodinase type 1 and 2 activities. Monodeiodinase type 1 and type 2 activities were determined in tissue homogenates by measuring the release of radioiodide from [^125I]rT3 according to the method of Leonard and Rosenberg (Leonard, J. L. et al. Endocrinology (1980) 106: 444-451).
# (§3) Monodeiodinase type 1 activity was measured in liver homogenates using 1 μM rT3 and 1 mM DTT with 10 min of incubation, whereas for heart, 0.01 μM rT3 and 10 mM DTT with 1 hour of incubation. Monodeiodinase type 2 activity was measured in brown adipose tissue (BAT) and cerebral cortex using 1 nM rT3, 10 mM DTT and 1 mM propylthiouracil (PTU) with 1 hour of incubation. Protein concentrations were measured by the method of Bradford (Bio-Rad Laboratories GmbH, Munich, Germany) with bovine gammaglobulin as the protein standard. In order to study the effect of circulating Tetrac on the enzyme activities, 2 rats were injected intraperitoneally with 10 μCi ^125I Tetrac and killed 6 hours later. The tissue homogenates were extracted with 3 volumes of ethanol-NH3 (97:3). After 10 minutes centrifugation at 15,000 g, the supernatant was vacuum dried and applied to TLC (Merck 254, Toluol, acetic acid, water: 2:2:1). In order to calculate the tissue concentrations, the highest serum Tetrac levels were used (406 pmol/ml). The calculated tissue concentrations were: liver: 1.9, heart: 2.29 and brain cortex: 0.47 fluol Tetrac/μg protein.
# Monodeiodinase type 2 = Monodeiodinase type 2 activity in brain cortex and brown adipose tissue of infused rats; type: in vivo, rat; details: for Residual monodeiodinase type 2 activity, adjusted mean: infused rats, remaining activity, adjusted group mean at the mean Ln (TSH) concentration
# Procedure: as §1, §2, §3
# [2] = system: monodeiodinase type 1 mRNA; assay: Northern blot, hepatic monodeiodinase type 1 mRNA; type: in vivo, rat; details: Liver, infused rats, adjusted group mean at the mean Ln (TSH) concentration
# Procedure: as §1
# (§4) Total RNA extraction and Northern Blot hybridization Total RNA was extracted with the method of Chomczynski and Sacchi (Chomczynski, P. and Sacchi, N. Anal. Biochem. (1987) 162: 156-159). […]
# (§5) The amount of labeled mRNA was quantified by scanning laser densitometry (Phosphorimager, Molecular Dynamics; Sunnyvale, USA). Variations in RNA loading and membrane transfer were corrected by densitometric quantification of a negative photograph of 28S and 18S ribosomal RNA bands from ethidium bromide stained RNA gels. […]
# α-MHC mRNA = assay: Northern blot, α-MHC mRNA in heart; type: in vivo, rat
# Procedure: as §1, §4, §5
# β-MHC mRNA = assay: Northern blot, β-MHC mRNA in heart; type: in vivo, rat; details: infused rats, adjusted group mean at the mean Ln (TSH) concentration
# Procedure: as §1, §4, §5
# GH mRNA = assay: Northern blot, growth hormone mRNA in pituitary; type: in vivo, rat; details: infused rats, adjusted group mean at the mean Ln (TSH) concentration
# Procedure: as §1, §4, §5
# [3] = infusion 13.5 nmol/day/100 g BW
smiles,measurement,setting,value
"N[C@@H](Cc1cc(I)c(Oc2cc(I)c(O)c(I)c2)c(I)c1)C(=O)O [T4, L-thyroxine, reference compound]",Heart,hypothyroid rats; 0.5 nmol/day/100 g BW,0.86 ± 0.06 g
same,Heart,hypothyroid rats; 1.5 nmol/day/100 g BW,0.90 ± 0.04 g
same,Heart,hypothyroid rats; 4.5 nmol/day/100 g BW,1.19 ± 0.03 g
same,Heart,hypothyroid rats; 13.5 nmol/day/100 g BW,1.32 ± 0.11 g
same,Heart/BW (%),hypothyroid rats; infusion 0.5 nmol/day/100 g BW,0.35 ± 0.02%
same,Heart/BW (%),hypothyroid rats; infusion 1.5 nmol/day/100 g BW,0.34 ± 0.01%
same,Heart/BW (%),hypothyroid rats; infusion 4.5 nmol/day/100 g BW,0.45 ± 0.02%
same,Heart/BW (%),hypothyroid rats; [3],0.54 ± 0.02%
same,Serum TSH,TSH; infusion 0.5 nmol/day/100 g BW,110.2 ± 10.8 ng/mL
same,Serum TSH,TSH; infusion 1.5 nmol/day/100 g BW,11.8 ± 3.0 ng/mL
same,Serum TSH,TSH; infusion 4.5 nmol/day/100 g BW,1.0 ± 0.2 ng/mL
same,Serum TSH,TSH; [3],<0.8 ng/mL
same,"Serum TSH concentration, mean of treatment group","TSH; mean over all dose levels of the treated rats, p=<0.04",31 ng/mL
same,concentration at 13 days,[1]; T4 infusion 0.5 nmol/day/100 g BW,43.1 ± 2.8 nM
same,concentration at 13 days,[1]; T4 infusion 1.5 nmol/day/100 g BW,77.1 ± 9.4 nM
same,concentration at 13 days,[1]; T4 infusion 4.5 nmol/day/100 g BW,130 ± 9.5 nM
same,concentration at 13 days,[1]; T4 infusion 13.5 nmol/day/100 g BW,353 ± 31.7 nM
same,"Residual Monodeiodinase type 1 activity, adjusted mean",Monodeiodinase type 1,180
same,"Residual monodeiodinase type 2 activity, T4/Tetrac (activity of T4 in % of Tetrac)",Monodeiodinase type 2; BAT,42%
same,"Residual monodeiodinase type 2 activity, adjusted mean",Monodeiodinase type 2; BAT,11.8
same,"Residual monodeiodinase type 2 activity, T4/Tetrac (activity of T4 in % of Tetrac)",Monodeiodinase type 2; Brain Cortex,18%
same,"Residual monodeiodinase type 2 activity, adjusted mean",Monodeiodinase type 2; Brain Cortex,5.02
same,"Residual Monodeiodinase type 1 mRNA, adjusted mean",[2],5.1 arbitrary units
same,"α-MHC mRNA, T4/Tetrac (activity of T4 in % of Tetrac)",α-MHC mRNA,21%
same,"α-MHC mRNA, adjusted mean","α-MHC mRNA; infused rats, adjusted group mean at the mean Ln (TSH) concentration",1.13 arbitrary units
same,"β-MHC mRNA, adjusted mean",β-MHC mRNA,495 arbitrary units
same,"GH mRNA, adjusted mean",GH mRNA,28644 arbitrary units
